These results are taken from US20240358681A1, “METHODS OF USE OF PPAR AGONIST COMPOUNDS AND PHARMACEUTICAL COMPOSITIONS THEREOF” (Mitobridge, Inc., priority 2021, published 2024).

One experiment relates to LHON/Leigh cells. Briefly: Mitochondrial fatty acid oxidation assay by high-resolution respirometry (palmitate-mediated OXPHOS). The settings on record: Leigh/LHON cell line, 24 hours treatment; FIG. 4B. Type of experiment: cell-based, human. Here is the method:
LHON/Leigh cells were treated with DMSO or Compound (I) in complete media supplemented with 0.5 mM carnitine for 24 hours prior to assaying. Treated cells were trypsinized, collected in Krebs-Henseleit Buffer (KHB) and pelleted.
Palmitate-mediated OXPHOS was measured using an Oxygraph-2k (Oroboros Instruments). Cells (1×10^6) in KHB were loaded into each chamber with 250 μM BSA or BSA-conjugated palmitate. KHB was added to reach a final volume of 2 mL. Respiration was measured at 37° C. as previously described in Zhang, Z., et al., Primary respiratory chain disease causes tissue-specific dysregulation of the global transcriptome and nutrient-sensing signaling network. (1932-6203). Briefly, BSA and BSA-conjugated palmitate treated cells were analyzed simultaneously in two separate chambers. […]
Data were analyzed using DatLab6 software. […] Non-mitochondrial respiration was measured after addition of Rotenone and Antimycin A sequentially (ROX, residual oxygen consumption, background) and subtracted from maximal respiration values. […]

Experiment [1] relates to fibroblasts from patients harboring mitochondrial mutations (Leigh Syndrome/LHON, MELAS, KSS) and MERRF cybrid cell line. Briefly: Gene expression analysis in cells harboring mitochondrial mutations. The class given is cell-based, human. The settings on record: for ACADVL expression: FIG. 3C. The text has this: Leigh syndrome/Leber's hereditary optic neuropathy (LHON) cells were isolated from a patient diagnosed with both Leigh syndrome and LHON. This subject had two point mutations; one in the mtDNA-encoded ND4 gene (mutation 11778G>A) and one in the mtDNA encoded ND6 gene (mutation 14484T>C) in the NADH dehydrogenase complex. m.3243A>G MELAS (Mitochondrial encephalomyopathy, lactic acidosis, and stroke-like episodes) cells were isolated from a patient harboring the m.3243A>G mutation in the mtDNA-encoded tRNA-leucine gene. Kearns Sayre Syndrome (KSS) fibroblast cells were isolated from a patient harboring the 5 kilobase (Kb) common deletion and were obtained from the Coriell Institue along with a control fibroblast cell line. MERRF m.8344A>G osteosarcoma transmitochondrial cybrids were acquired from the Moraes lab (Masucci, J. P., M. P. Schon Ea Fau-King, and M. P. King, Point mutations in the mitochondrial tRNA(Lys) gene: implications for pathogenesis and mechanism. (0300-8177)).
MELAS m.3243A>G fibroblasts were grown in Eagle's minimum essential media (EMEM) supplemented with 10% heat inactivated FBS, 1 mM sodium pyruvate, 1× non-essential amino acids, 2 mM 1-glutamine, and 100 μg/ml of uridine. KSS fibroblasts were grown in EMEM supplemented with 15% heat inactivated FBS, 1× non-essential amino acids, and 100 μg/ml of uridine. Leigh/LHON syndrome fibroblast cell lines were grown in Dulbecco's modified eagle medium (DMEM) supplemented with 1 mM sodium pyruvate, 10% HI FBS, and 100 μg/ml of uridine. MERRF tRNA-LYS 8344 cybrid cells were grown in DMEM supplemented with 10% heat inactivated FBS, 1 mM sodium pyruvate and 100 μg/ml of uridine.
All cell lines with the exception of LHON/Leigh Syndrome fibroblasts were plated at a density of 50 k/well in 6 well plates. Compound (I) or 0.1% DMSO was added 8 hours later in complete media. Treatment media or vehicle media were refreshed 24 hours later for a total treatment time of 48 hours. LHON/Leigh Syndrome fibroblasts were plated and treated in the same manner but for a total treatment time of 24 hours.
mTotal RNA was isolated using NucleoSpin® kits (Macherey-Nagel) as per manufacturer's protocol. One microgram of total RNA was used to generate cDNA using the High-Capacity cDNA Reverse Transcription Kit (Applied Biosystems).
MELAS m.3243A>G fibroblasts, KSS Fibroblast and MERRF tRNA-Lys 8344 cybrid gene expression was performed using 5 ng cDNA and 300 nM of primers were mixed with water and iQ SYBR Green master mix, loaded in 384-well qPCR plates, and subsequently analyzed using a BioRad CFX384 Real-Time PCR Detection System. Fold change was calculated as ΔCt on a per sample basis was calculated as Ct (Gene of interest)−Ct (Average of reference genes). The ΔΔCt was then calculated as ΔCt (experimental sample)−Average ΔCt (control group). Fold change was calculated as 2^−ΔΔCT. LHON/Leigh Syndrome fibroblast cDNA was mixed with dH2O and SYBR Green master mix and 1 μM of primers were dispensed into the sample source plates and primer source plates in 384-well plates, respectively. Reactions were loaded into SmartChip (WaferGen Bio-systems) with Multisample Nanodispenser and the chip was analyzed in the SmartChip Cycler.
Raw expression data was exported from software and graphed after processing with reference genes and normalized against control using QBase software. To obtain normalized values, the calibrated normalized relative quantities (CNRQ) values of each sample were divided by the average CNRQ for all vehicle treated samples in order to make expression relative to the control group.

Values joined by “and” are separate entries in the source; they are usually repeats but may differ in a detail not shown here. Equal values may be shown once. “Also recorded” adds a separate entry of the source.

Regarding `Cc1cnc(-c2ccc(C(F)(F)F)cc2)n1Cc1ccccc1OCCC[C@@H](C)CC(=O)O` [Compound (I), (R)-3-Methyl-6-(2-((5-methyl-2-(4-(trifluoromethyl)phenyl)-1H-imidazol-1-yl)methyl)-phenoxy)hexanoic acid], the “fatty acid-mediated OXPHOS” value in the experiment on LHON/Leigh cells was “significantly increased”. Also, the PDK4 transcript increase in experiment [1] (24 or 48 hour treatment, across all four cell lines tested, FIG. 3B) is 10 to 50 fold and 10 to 100 fold. The “ANGPTL4 induction (marker of target engagement)” value in experiment [1] (24 or 48 hours treatment, FIG. 3A) is reported as “large induction; also recorded: greatly induced”. Also, the ACADVL expression result is on record as “showed induction” in experiment [1] (MELAS and MERRF cells, n=2, no statistical comparison); “significantly upregulated” in experiment [1] (two of the lines tested). The CPT1A transcript induction entry in experiment [1] (across all cell lines tested, FIG. 3D) is given as “approximately 2 fold”. In addition, the SLC25A20 expression entry in experiment [1] (across all four cell lines tested, FIG. 3E) was “induced”. Also, in experiment [1] (across four cell lines with mitochondrial mutations, FIG. 3C-3E), the “Genes involved in the import, packaging and catabolism of fatty acids into the mitochondria for OXPHOS” value was “upregulated”.
